We go through twelve compounds from patent US9510592B2, “Pesticidal compositions and processes related thereto” (Dow AgroSciences LLC, priority 2012, dated 2016).

Each structure is given as a SMILES string.

For test [1], the system named is Corn Earworm (Helicoverpa zea). Briefly: Bioassay on Corn Earworm (CEW), 128-well diet tray assay. It counts as in vivo. The conditions noted are these: Helicoverpa zea, 168 h; percent mortality of second instar larvae, 50 μg/cm^2 on artificial diet, five to seven days, 25° C.; Table 3; read-out: CEW Rating. As to the method:
Certain molecules disclosed in this document were tested against BAW and CEW and CL using procedures described in the following examples. In the reporting of the results, the “BAW & CEW & CL Rating Table” was used (See Table Section).
Bioassays On CEW (Helicoverpa zea)
Bioassays on CEW were conducted using a 128-well diet tray assay. one to five second instar CEW larvae were placed in each well (3 mL) of the diet tray that had been previously filled with 1 mL of artificial diet to which 50 μg/cm^2 of the test compound (dissolved in 50 μL of 90:10 acetone-water mixture) had been applied (to each of eight wells) and then allowed to dry. Trays were covered with a clear self-adhesive cover, and held at 25° C., 14:10 light-dark for five to seven days. Percent mortality was recorded for the larvae in each well; activity in the eight wells was then averaged. The results are indicated in the table entitled “Table 3: Assay Results” (See Table Section).

The test system of test [2] is Beet Armyworm (Spodoptera exigua). Put plainly: Bioassay on Beet Armyworm (BAW), 128-well diet tray assay. It is filed as in vivo. The note with it: Spodoptera exigua, 168 h; percent mortality of second instar larvae, 50 μg/cm^2 on artificial diet, five to seven days, 25° C.; Table 3; read-out: BAW Rating. Summed up:
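Second-instar larvae (one to five per well) were placed on artificial diet surface-treated with 50 μg/cm^2 compound in acetone-water and held at 25 °C, 14:10 light-dark, for five to seven days. Percent mortality was averaged over eight wells.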

As to `FC(F)(F)C(/C=C/c1ccc(-n2cncn2)cc1)c1cc(Cl)cc(Cl)c1Cl` (stereo not drawn) [DC17], the pest or weed control at 50 µg/cm2 in test [1] lay in the range of 50 to 100%. The pest or weed control at 50 µg/cm2, 50 µg/cm2 in test [2] is 50 to 100%.
Turning to `CNC(=S)NC1CCc2cc(/C=C/C(c3cc(Cl)c(Cl)c(Cl)c3)C(F)(F)F)ccc21` (stereo not drawn) [BC1, (E)-1-Methyl-3-(5-(4,4,4-trifluoro-3-(3,4,5-trichlorophenyl)-but-1-enyl)-2,3-dihydro-1H-inden-1-yl)thiourea], the pest or weed control at 50 µg/cm2 in test [1] fell in the range of 50 to 100%. For the same compound, the pest or weed control at 50 µg/cm2, 50 µg/cm2 in test [2] lay within 50 to 100%.
As to `CCNC(=S)NC1CCc2cc(/C=C/C(c3cc(Cl)c(Cl)c(Cl)c3)C(F)(F)F)ccc21` (stereo not drawn) [BC2], in test [1], the pest or weed control at 50 µg/cm2 is 50 to 100%. Moreover, the pest or weed control at 50 µg/cm2, 50 µg/cm2 in test [2] was 50 to 100%.
For the compound `FC(F)(F)C(/C=C/c1ccc(-n2cncn2)cc1)c1ccc(Cl)cc1Cl` (stereo not drawn) [DC13], in test [1], the pest or weed control at 50 µg/cm2 was in the range of 50 to 100%. For the same compound, the pest or weed control at 50 µg/cm2, 50 µg/cm2 in test [2] fell in the range of 50 to 100%.
Take `CN(C)NC(=O)CNC(=O)c1ccc(/C=C/C(c2cc(Cl)c(Cl)c(Cl)c2)C(F)(F)F)cc1Br` (stereo not drawn) [AC112]: the pest or weed control at 50 µg/cm2 in test [1] was 50 to 100%. Also, the pest or weed control at 50 µg/cm2, 50 µg/cm2 in test [2] was 50 to 100%.
As to `N#Cc1cc(/C=C/C(c2cc(C(F)(F)F)cc(C(F)(F)F)c2)C(F)(F)F)ccc1-n1cncn1` (stereo not drawn) [DC30], the pest or weed control at 50 µg/cm2 in test [1] lay within 50 to 100%. Also, the pest or weed control at 50 µg/cm2, 50 µg/cm2 in test [2] lay in the range of 50 to 100%.
Regarding `O=C(NCc1ccc(Cl)nc1)c1ccc(/C=C/C(c2cc(Cl)cc(Cl)c2)C(F)(F)F)cc1Br` (stereo not drawn) [AC46], the pest or weed control at 50 µg/cm2 in test [1] was in the range of 50 to 100%. The pest or weed control at 50 µg/cm2, 50 µg/cm2 in test [2] lay in the range of 50 to 100%.
Regarding `CCc1cc(/C=C/C(c2cc(Cl)c(F)c(Cl)c2)C(F)(F)F)ccc1C(=O)NCc1cccnc1Cl` (stereo not drawn) [AC76], the pest or weed control at 50 µg/cm2 in test [1] fell in the range of 50 to 100%. Besides, the pest or weed control at 50 µg/cm2, 50 µg/cm2 in test [2] fell in the range of 50 to 100%.
With `O=C(NC1CCN(CC(F)(F)F)CC1)c1ccc(/C=C/C(c2cc(Cl)c(Cl)c(Cl)c2)C(F)(F)F)cc1Br` (stereo not drawn) [AC105, (E)-2-Bromo-4-(4,4,4-trifluoro-3-(3,4,5-trichlorophenyl)but-1-en-1-yl)-N-(1-(2,2,2-trifluoroethyl)piperidin-4-yl)benzamide], the pest or weed control at 50 µg/cm2 in test [1] was 50 to 100%. The pest or weed control at 50 µg/cm2, 50 µg/cm2 in test [2] lay within 50 to 100%.
With `FC(F)(F)C(/C=C/c1ccc(-n2cncn2)cc1)c1cc(Cl)c(Cl)c(Cl)c1` (stereo not drawn) [DC18], in test [1], the pest or weed control at 50 µg/cm2 is 50 to 100%. The pest or weed control at 50 µg/cm2, 50 µg/cm2 in test [2] was in the range of 50 to 100%.
For the compound `C=CCNC(=S)NC1CCc2cc(/C=C/C(c3cc(Cl)c(Cl)c(Cl)c3)C(F)(F)F)ccc21` (stereo not drawn) [BC3], the pest or weed control at 50 µg/cm2 in test [1] is 50 to 100%. Moreover, the pest or weed control at 50 µg/cm2, 50 µg/cm2 in test [2] lay within 50 to 100%.
For `N#Cc1cc(/C=C/C(c2cc(Cl)cc(Cl)c2)C(F)(F)F)ccc1-n1cncn1` (stereo not drawn) [DC29], in test [1], the pest or weed control at 50 µg/cm2 fell in the range of 50 to 100%. In test [2], the pest or weed control at 50 µg/cm2, 50 µg/cm2 was 50 to 100%.
